Entries after “also recorded” stand apart in the source; their conditions may differ.
Columns and labels:
[1] = Rodent acute tolerability test, liver function tests (Example 5); assay type: in vivo, Female Sprague Dawley rats; details: rat; for LFT blood levels ALT and AST (in words): intravenous bolus, about 24 hours post dose; for serum biomarkers of hepatotoxicity (in words): in vivo
Procedure: Compounds of Formula (I) were assessed for acute tolerability in a rodent model at dose levels ranging from 100-200 mg/kg based upon the minimum efficacious dose of each compound. Female Sprague Dawley rats were administered up to a 10 mL/kg dose volume of each compound in 0.9% saline at appropriate concentrations as an intravenous bolus via the lateral tail vein. The animals were observed immediately post dose and for up to twenty four hours post dose and clinical observations were recorded. Additionally, approximately twenty four hours post dose animals were euthanized and blood taken for serum chemistry analysis with a focus on liver function tests (LFTs). The maximum tolerated single dose and LFT results are summarized in Table 3 in FIG. 3, where ( ? ) indicates blood levels of markers for potential liver damage within normal range and (↑) indicates blood levels of markers for potential liver damage elevated above normal range. Referring to the data in Table 3, LFT blood levels of markers for potential liver damage remained within normal range for the compounds of Formula (I), while LFTs were elevated for Comparator Compounds including 5-10 fold elevation above normal for ALT and AST blood levels observed upon administration of Comparator Compound 1.

[2] = test system: CFA Cold Allodynia; assay: Rodent cold plate pain model, Complete Freund's Adjuvant (Example 4); assay type: in vivo; details: rat
Procedure: CFA-induced pain test method reported in del Camino et al., J. Neurosci., 30 (45):15165-15174, incorporated herein by reference in its entirety. Briefly, the right hind paw is sensitized to cold temperature (allodynic) by administering 0.1 mL of Complete Freund's Adjuvant (CFA) to that paw. Two to four days later, the time it takes for the animal to lift its CFA-injected paw from the cold surface is recorded compared to its un-injected normal left hind paw. […] To avoid tissue damage, the maximum cut-off time is five minutes. Animals that are allodynic (average PWL to the first three pain behaviors<150 seconds for the CFA-injected hind paw: ˜≧50% difference between the normal and CFA-injected paw) are included in the study and subsequently randomized across treatment groups. The following day, the animals in some groups are dosed with a test compound under blinded conditions. Following the one to two hour pre-treatment time, the post-dose PWL readings are taken again. The efficacy of the drug treatment is assessed by comparing the PWL in the drug treatment animals to those that receive the vehicle.

[3] = Aqueous solubility (Example 2); assay type: physicochemical; details: method of Example 2
Procedure: Compounds of Formula (I) where R^1 is —CH2—R^1a, and R^1a is phosphate, have suitable levels of aqueous solubility for incorporation in a pharmaceutical composition formulated for intravenous administration. Unless otherwise indicated, the aqueous solubility of compounds of Formula (I) in Tables in FIG. 1 was measured using the procedure of Example 2 (Kerns, E. H., Journal of Pharmaceutical Sciences 2001, 90, 1838-1858, incorporated herein by reference). Solubility data was obtained by this method for compounds of Formula (I) and included in FIG. 1. The chromatographic data was performed using (type of HPLC). The column used was an Xbridge Shield RP18 with the following column dimensions: 4.6×30 mm, 3.5 μm. The mobile phase consisted of deionized water (MPA) with trifluoroacetic acid added in at 0.1% (v/v) (MPC) and HPLC-grade acetonitrile (MPB). The mobile phase flow rate was 2.5 mL/min with the column and sampling operating at ambient temperature. UV detection was set to 280 nm. For all samples used for solubility determination, the mobile phase gradient used was as follows in Table 1g below.
Stock solutions of compounds of Formula (I) where R^1 is —CH2—R^1a, and R^1a is phosphate, were prepared in water at 20 mg/mL. Stock solutions of the compounds of Formula (I), wherein R^1 is hydrogen, were prepared in dimethyl acetamide at 20 mg/mL. […]

| Compound | LFT blood levels ALT and AST (in words) [1] | serum biomarkers of hepatotoxicity (in words) [1] | also measured |
| --- | --- | --- | --- |
| C[C@H]1CCCN1c1ncc(-c2cncc(N(COP(=O)(O)O)C(=O)[C@H](C)n3cnc4c3c(=O)n(C)c(=O)n4C)n2)cn1 [((S)-2-(1,3-dimethyl-2,6-dioxo-1,2,3,6-tetrahydro-7H-purin-7-yl)-N-(6-(2-((S)-2-methylpyrrolidin-1-yl)pyrimidin-5-yl)pyrazin-2-yl)propanamido)methyl dihydrogen phosphate] | did not result in abnormally high levels of LFT compounds ALT or AST |  |  |
| C[C@@H](C(=O)N(COP(=O)([O-])O)c1cccc(-c2cnc(N3CCC[C@H]3C(F)(F)F)nc2)n1)n1cnc2c1c(=O)n(C)c(=O)n2C.[Na+] [Compound 1-A, ((S)-2-(1,3-dimethyl-2,6-dioxo-1,2,3,6-tetrahydro-7H-purin-7-yl)-N-(6-(2-((S)-2-(trifluoromethyl)pyrrolidin-1-yl)pyrimidin-5-yl)pyridin-2-yl)propanamido)methyl dihydrogen phosphate] | did not result in abnormally high levels of LFT compounds ALT or AST |  | effect on cold allodynia (in words) ([2]; CFA cold plate model): analgesic effect on cold allodynia; also recorded: reversal of CFA Cold Allodynia; Paw Withdrawal Latency (PWL) (in words) ([2]; i.p. administration, CFA model, cold plate 1° C.): increased rodent Paw Withdrawal Latency |
| C[C@@H](C(=O)N(COP(=O)(O)O)c1cncc(-c2cnc(N3CCCC3(C)C)nc2)n1)n1cnc2c1c(=O)n(C)c(=O)n2C [Compound 3-J, (S)-(2-(1,3-dimethyl-2,6-dioxo-1,2,3,6-tetrahydro-7H-purin-7-yl)-N-(6-(2-(2,2-dimethylpyrrolidin-1-yl)pyrimidin-5-yl)pyrazin-2-yl)propanamido)methyl dihydrogen phosphate] | did not result in abnormally high levels of LFT compounds ALT or AST |  |  |
| C[C@H]1CCCN1c1ccc(-c2csc(NC(=O)Cn3cnc4c3c(=O)n(C)c(=O)n4C)n2)cc1F [Comparator Compound 1, reference compound] |  | elevate the serum biomarkers of hepatotoxicity |  |
| C[C@@H](C(=O)N(COP(=O)(O)O)c1cncc(-c2cnc(N3CCC[C@H]3C(F)(F)F)nc2)n1)n1cnc2c1c(=O)n(C)c(=O)n2C [Compound 2-E, ((S)-2-(1,3-dimethyl-2,6-dioxo-1,2,3,6-tetrahydro-7H-purin-7-yl)-N-(6-(2-((S)-2-(trifluoromethyl)pyrrolidin-1-yl)pyrimidin-5-yl)pyrazin-2-yl)propanamido)methyl dihydrogen phosphate] | did not result in abnormally high levels of LFT compounds ALT or AST |  |  |
| C[C@H]1CCCN1c1ncc(-c2cccc(NC(=O)Cn3cnc4c3c(=O)n(C)c(=O)n4C)n2)cn1 [Comparator Compound 2, reference compound] |  | did not elevate the serum biomarkers of hepatotoxicity | aqueous solubility (in words) [3]: undesirably low aqueous solubility |

— patent US9394308B2, “Inhibiting the transient receptor potential A1 ion channel” (Merck Sharp & Dohme Corp., priority 2013, dated 2016)
